# From PubChem BioAssay AID2060885 (Molecular Pharmacology Branch, DTP, NCI, 2025)
# Test system: NCI-H23 complex spheroids with HUVEC/MSC, viability
# Assay: Anticancer human tumor NCI-H23 cell line growth inhibition [RAS];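 further: spheroids exposed to compound for 7 days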;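 on viability, T/C: 100% = DMSO vehicle control viability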
# Details: for IC50: curve of first compound; for viability, T/C: stronger effect = lower value
# Source text: RAS pathway inhibitors in Combinations in Complex Spheroids
# A high-throughput screen of multi-cell type tumor spheroids was designed to identify active combinations of RAS pathway inhibitors and targeted small molecules. Complex spheroids include a stromal component modeled by human endothelial cells (HUVEC) and fibroblasts modeled by human mesenchymal stem cells (MSCs). The concentration ranges selected for each drug and investigational agent were based upon clinically achievable concentrations if the clinical Cmax of the agent was known.
# Compounds. The drugs and investigational agents: abemaciclib (NSC768073), cobimetinib (NSC768068), divarasib (GDC6063, NSC841802), docetaxel (NSC628503), GDC-1971 (RLY-1971, NSC841576), gemcitabine (NSC613327), inavolisib (NSC800729), ipatasertib (NSC767898), KB-0742 (NSC834161), MRTX-1133 (NSC836407), osimertinib (NSC779217), RMC-4630 (NSC839698), RMC-6236 (NSC851965), RMC-6291 (NSC852671), Ro-3306 (NSC812927), sapanisertib (NSC764658), SN-38 (NSC673596), staurosporine (NSC755774), SY5609 (NSC837396), and tovorafenib (DAY101, NSC766906), were obtained from the National Cancer Institute (NCI) Developmental Therapeutics Program Chemical Repository. The FDA-approved anticancer drug set is available from the NCI Developmental Therapeutics Program. […] The stock solutions were prepared in dimethyl sulfoxide (DMSO, Sigma-Aldrich, St. Louis, MO, cat. D2650) at 800-fold the tested concentration and stored at -70 degrees C prior to their use. All drugs and investigational agents were tested over a range starting from a high concentration at or near the clinical Cmax and decreasing in half-log increments. If the clinical Cmax for an agent had not been determined, the highest concentration tested was 10 microM.
# Cell Culture. All cells were maintained in an incubator at 37 degrees C and 5% CO2 with 95% humidity. The PDC lines were cultured according to standard operating procedures established by the NCI PDMR. All PDCs were thawed and cultured in Matrigel-coated flasks prepared with a working solution of 1X Ham's F-12 nutrient mix, without supplementation (Invitrogen, Waltham, MA, cat. 11765054), 100 U/mL penicillin-streptomycin (Invitrogen, cat. 15140122), and 2.5% Matrigel (Corning Inc., Corning, NY, cat. 354248) for the first three passages. The 362531-283-R-J2-PDC and 782815-120-R-J1-PDC lines were cultured in 6C/Colon 1B media, which includes advanced DMEM/F-12 (Thermo Fisher Scientific, cat. 12634028), 10 mM HEPES (Thermo Fisher Scientific, cat. 15630080), 1X GlutaMAX supplement (Thermo Fisher Scientific, cat. 35050061), 0.1 mg/mL primocin (InvivoGen, San Diego, CA, cat. ant-pm-2), 10% defined fetal bovine serum, heat inactivated (HyClone Laboratories Inc., Logan, UT, cat. SH30070.03HI), 50% L-WRN conditioned media (ATCC, cat. CRL-3276), 1.25 mM N-Acetyl-L-cysteine (Sigma-Aldrich, cat. A9165), 10 mM nicotinamide (Sigma-Aldrich, cat. N0636), 1X B-27 supplement (Thermo Fisher Scientific, cat. 17504044), 1X N-2 supplement (Thermo Fisher Scientific, cat. 17502048), 50 ng/mL human EGF (Thermo Fisher Scientific, cat. PHG0311), and 10 microM Y-27632 dihydrochloride (Tocris Bioscience, cat. 1254). The K12877-001-R-J1-PDC line was cultured in 6I media, which includes all 6C/Colon 1B media plus 10 ng/mL human FGF-10 (PeproTech, cat. 100-26), 1 ng/mL human FGF-2 (PeproTech, cat. 100-18B), 1 µM prostaglandin E2 (Tocris Bioscience, cat. 2296), […] hydrocortisone (Sigma-Aldrich, cat. H4001), and […] bovine insulin (Sigma-Aldrich, cat. I6634). The K86415-001-R-J1-PDC line was cultured in 6D media, which includes all 6C/Colon 1B media components minus the L-WRN conditioned media. The 485176-168-R4-J1-PDC was cultured in PANC media, which includes all 6C/Colon 1B media plus 100 ng/mL human FGF-10 (PeproTech, cat. 100-26), 500 nM SB-431542 (Selleckchem, cat. S1067), and 10 nM gastrin (Tocris Bioscience, cat. 3006). […]
smiles,measurement,setting,value
CC(C)n1nc(-c2ccc3oc(N)nc3c2)c2c(N)ncnc21 + CCn1c(-c2cc(N3CCN(C)CC3)cnc2C(C)OC)c2c3cc(ccc31)-c1csc(n1)CC(NC(=O)C1CC1C)C(=O)N1CCCC(N1)C(=O)OCC(C)(C)C2,IC50,second compound 0.000949 µM,< 0.316 nM
same,IC50,second compound 0.003 µM,< 0.316 nM
same,IC50,second compound 0.00949 µM,< 0.316 nM
same,IC50,second compound 0.03 µM,< 0.316 nM
same,IC50,second compound 0.0949 µM,< 0.316 nM
same,IC50,second compound 0.3 µM,< 0.316 nM
same,"viability, T/C","second compound 0.000949 µM, first compound 0.000316 µM",44.2%
same,"viability, T/C","second compound 0.000949 µM, first compound 0.001 µM",41.7%
same,"viability, T/C","second compound 0.000949 µM, first compound 0.00316 µM",24.1%
same,"viability, T/C","second compound 0.000949 µM, first compound 0.01 µM",30%
same,"viability, T/C","second compound 0.000949 µM, first compound 0.0316 µM",24.2%
same,"viability, T/C","second compound 0.000949 µM, first compound 0.1 µM",13.5%
same,"viability, T/C","second compound 0.003 µM, first compound 0.000316 µM",32.4%
same,"viability, T/C","second compound 0.003 µM, first compound 0.001 µM",24.6%
same,"viability, T/C","second compound 0.003 µM, first compound 0.00316 µM",25.8%
same,"viability, T/C","second compound 0.003 µM, first compound 0.01 µM",21.6%
same,"viability, T/C","second compound 0.003 µM, first compound 0.0316 µM",19%
same,"viability, T/C","second compound 0.003 µM, first compound 0.1 µM",9.18%
same,"viability, T/C","second compound 0.00949 µM, first compound 0.000316 µM",31.2%
same,"viability, T/C","second compound 0.00949 µM, first compound 0.001 µM",26.8%
same,"viability, T/C","second compound 0.00949 µM, first compound 0.00316 µM",24.1%
same,"viability, T/C","second compound 0.00949 µM, first compound 0.01 µM",20%
same,"viability, T/C","second compound 0.00949 µM, first compound 0.0316 µM",16.4%
same,"viability, T/C","second compound 0.00949 µM, first compound 0.1 µM",11.4%
same,"viability, T/C","second compound 0.03 µM, first compound 0.000316 µM",24.5%
same,"viability, T/C","second compound 0.03 µM, first compound 0.001 µM",25.2%
same,"viability, T/C","second compound 0.03 µM, first compound 0.00316 µM",22.7%
same,"viability, T/C","second compound 0.03 µM, first compound 0.01 µM",19%
same,"viability, T/C","second compound 0.03 µM, first compound 0.0316 µM",11.7%
same,"viability, T/C","second compound 0.03 µM, first compound 0.1 µM",11.6%
same,"viability, T/C","second compound 0.0949 µM, first compound 0.000316 µM",19.2%
same,"viability, T/C","second compound 0.0949 µM, first compound 0.001 µM",19.4%
same,"viability, T/C","second compound 0.0949 µM, first compound 0.00316 µM",19.2%
same,"viability, T/C","second compound 0.0949 µM, first compound 0.01 µM",16.6%
same,"viability, T/C","second compound 0.0949 µM, first compound 0.0316 µM",9.51%
same,"viability, T/C","second compound 0.0949 µM, first compound 0.1 µM",11.2%
same,"viability, T/C","second compound 0.3 µM, first compound 0.000316 µM",17.9%
same,"viability, T/C","second compound 0.3 µM, first compound 0.001 µM",17%
same,"viability, T/C","second compound 0.3 µM, first compound 0.00316 µM",16.4%
same,"viability, T/C","second compound 0.3 µM, first compound 0.01 µM",13.4%
same,"viability, T/C","second compound 0.3 µM, first compound 0.0316 µM",13.5%
same,"viability, T/C","second compound 0.3 µM, first compound 0.1 µM",11.5%
